Here are results for three compounds from the NIST ThermoML archive (doi:10.1016/j.fluid.2006.01.014).

Numbers after ± are expanded uncertainties.

For the series the following is noted: Liquid; Ebulliometric method (Recirculating still).
With `c1ccccc1` [benzene], the Normal boiling temperature was 80.01 ± 0.2 °C.
The value for `C[Si](C)(Cl)Cl` [dichlorodimethylsilane] was 70.31 ± 0.2 °C.
The value for `C[Si](Cl)(Cl)Cl` [trichloromethylsilane] was 66.4 ± 0.2 °C.
